Test results reported in patent US20040156869A1, “2-substituted quinazolin-4-ylamine analogues” (Neurogen Corporation, priority 2002, published 2004).

Target: human capsaicin receptor (VR1) (Homo sapiens, UniProt Q8NER1)
Test: Capsaicin receptor binding assay ([3H]RTX competition, VR1-transfected HEK293 membranes)

Chain of human capsaicin receptor (VR1) (Q8NER1 whole entry): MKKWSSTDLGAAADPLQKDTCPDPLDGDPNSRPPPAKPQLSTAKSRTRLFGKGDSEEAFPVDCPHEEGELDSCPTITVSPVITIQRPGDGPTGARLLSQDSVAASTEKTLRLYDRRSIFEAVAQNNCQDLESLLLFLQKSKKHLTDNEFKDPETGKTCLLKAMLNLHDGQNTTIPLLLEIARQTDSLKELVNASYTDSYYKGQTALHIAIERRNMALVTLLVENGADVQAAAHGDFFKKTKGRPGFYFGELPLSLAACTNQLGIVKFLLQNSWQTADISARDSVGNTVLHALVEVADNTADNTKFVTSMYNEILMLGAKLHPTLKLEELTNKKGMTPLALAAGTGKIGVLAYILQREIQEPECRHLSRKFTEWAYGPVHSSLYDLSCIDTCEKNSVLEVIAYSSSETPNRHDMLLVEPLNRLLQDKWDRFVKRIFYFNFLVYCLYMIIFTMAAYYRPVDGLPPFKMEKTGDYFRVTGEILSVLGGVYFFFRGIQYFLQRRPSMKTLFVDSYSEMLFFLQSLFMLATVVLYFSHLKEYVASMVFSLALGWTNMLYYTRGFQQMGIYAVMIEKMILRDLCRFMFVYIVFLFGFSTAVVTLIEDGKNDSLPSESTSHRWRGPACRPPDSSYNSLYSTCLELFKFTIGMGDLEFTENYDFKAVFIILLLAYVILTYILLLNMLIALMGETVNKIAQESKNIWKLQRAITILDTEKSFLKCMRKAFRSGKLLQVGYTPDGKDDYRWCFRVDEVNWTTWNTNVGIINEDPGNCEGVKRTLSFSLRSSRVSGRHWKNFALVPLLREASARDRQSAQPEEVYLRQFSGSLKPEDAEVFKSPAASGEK

| Compound | Ki [nM] |
| --- | --- |
| O=C(O)[C@@H]1CCCN1Cc1nc(Nc2ccc(C(F)(F)F)cc2)c2ccc(-c3ncccc3C(F)(F)F)nc2n1 [Compound 751, (S)-1-[4-(4-Trifluoromethyl-phenylamino)-7-(3-trifluoromethyl-pyridin-2-yl)-pyrido[2,3-d]pyrimidin-2-ylmethyl]-pyrrolidine-2-carboxylic acid] | < 1000 |
| CC(C)(C)c1ccc(Nc2nc(CN3CCCC3CO)nc3cc(-c4ncccc4C(F)(F)F)ccc23)cc1 (stereo not drawn) [Compound 755, {1-[4-(4-tert-Butyl-phenylamino)-7-(3-trifluoromethyl-pyridin-2-yl)-quinazolin-2-ylmethyl]-pyrrolidin-2-yl}-methanol] | < 1000 |
| C[C@@H]1CN(Cc2nc(Nc3ccc(C(C)(C)C)cc3)c3ccc(-c4ncccc4C(F)(F)F)nc3n2)C[C@H](C)O1 [Compound 757, (4-tert-Butyl-phenyl)-[2-(2,6-dimethyl-morpholin-4-ylmethyl)-7-(3-trifluoromethyl-pyridin-2-yl)-pyrido[2,3-d]pyrimidin-4-yl]-amine (cis)] | < 1000 |
| CC(C)(C)c1ccc(Nc2nc(CN3CCC[C@H]3C(=O)O)nc3nc(-c4ncccc4C(F)(F)F)ccc23)cc1 [Compound 758, (S)-1-[4-(4-tert-Butyl-phenylamino)-7-(3-trifluoromethyl-pyridin-2-yl)-pyrido[2,3-d]pyrimidin-2-ylmethyl]-pyrrolidine-2-carboxylic acid] | < 1000 |
| O=C(c1nc(Nc2ccc(C(F)(F)F)cc2)c2ccc(-c3ncccc3C(F)(F)F)cc2n1)N1CCCCC1 [Compound 759, Piperidin-1-yl-[4-(4-trifluoromethyl-phenylamino)-7-(3-trifluoromethyl-pyridin-2-yl)-quinazolin-2-yl]I-methanone] | < 1000 |
| O=C(NCCN1CCCC1)c1nc(Nc2ccc(C(F)(F)F)cc2)c2ccc(-c3ncccc3C(F)(F)F)cc2n1 [Compound 763, 4-(4-Trifluoromethyl-phenylamino)-7-(3-trifluoromethyl-pyridin-2-yl)-quinazoline-2-carboxylic acid (2-pyrrolidin-1-yl-ethyl)-amide] | < 1000 |
| O=C(O)CCNC(=O)c1nc(Nc2ccc(C(F)(F)F)cc2)c2ccc(-c3ncccc3C(F)(F)F)nc2n1 [Compound 765, 3-{[4-(4-Trifluoromethyl-phenylamino)-7-(3-trifluoromethyl-pyridin-2-yl)-pyrido[2,3-d]pyrimidine-2-carbonyl]-amino}-propionic acid] | < 1000 |
| O=C(O)C1CCN(C(=O)c2nc(Nc3ccc(C(F)(F)F)cc3)c3ccc(-c4ncccc4C(F)(F)F)nc3n2)CC1 [Compound 767, 1-[4-(4-Trifluoromethyl-phenylamino)-7-(3-trifluoromethyl-pyridin-2-yl)-pyrido[2,3-d]pyrimidine-2-carbonyl]-piperidine-4-carboxylic acid] | < 1000 |
| O=C(O)[C@@H]1CCCN1C(=O)c1nc(Nc2ccc(C(F)(F)F)cc2)c2ccc(-c3ncccc3C(F)(F)F)nc2n1 [Compound 768, (S)-1-[4-(4-Trifluoromethyl-phenylamino)-7-(3-trifluoromethyl-pyridin-2-yl)-pyrido[2,3-d]pyrimidine-2-carbonyl]-pyrrolidine-2-carboxylic acid] | < 1000 |
| CN1CCC(c2nc(Nc3ccc(C(C)(C)C)cc3)c3ccc(-c4ncccc4Cl)nc3n2)CC1 [Compound 769, (4-tert-Butyl-phenyl)-[7-(3-chloro-pyridin-2-yl)-2-(1-methyl-piperidin-4-yl)-pyrido[2,3-d]pyrimidin-4-yl]-amine] | < 1000 |
| CN1CCC(c2nc(Nc3ccc(C(F)(F)F)cc3)c3ccc(-c4ncccc4Cl)nc3n2)CC1 [Compound 771, [7-(3-Chloro-pyridin-2-yl)-2-(1-methyl-piperidin-4-yl)-pyrido[2,3-d]pyrimidin-4-yl]-(4-trifluoromethyl-phenyl)-amine] | < 1000 |
| C[C@@H]1CN(Cc2cc(Nc3ccc(C(F)(F)F)cc3)c3ccc(-c4ncccc4C(F)(F)F)nc3n2)C[C@H](C)O1 [Compound 773, [2-(2,6-Dimethyl-morpholin-4-ylmethyl)-7-(3-trifluoromethyl-pyridin-2-yl)-[1,8]naphthyridin-4-yl]-(4-trifluoromethyl-phenyl)-amine (cis)] | < 1000 |
| CC1CCCN1Cc1cc(Nc2ccc(C(F)(F)F)cc2)c2ccc(-c3ncccc3C(F)(F)F)nc2n1 (stereo not drawn) [Compound 774, [2-(2-Methyl-pyrrolidin-1-ylmethyl)-7-(3-trifluoromethyl-pyridin-2-yl)-[1,8]naphthyridin-4-yl]-(4-trifluoromethyl-phenyl)-amine] | < 1000 |
| COCCN(CCOC)Cc1cc(Nc2ccc(C(F)(F)F)cc2)c2ccc(-c3ncccc3C(F)(F)F)nc2n1 [Compound 775, [2-{[Bis-(2-methoxy-ethyl)-amino]-methyl}-7-(3-trifluoromethyl-pyridin-2-yl)-[1,8]naphthyridin-4-yl]-(4-trifluoromethyl-phenyl)-amine] | < 1000 |
| FC(F)(F)c1ccc(Nc2cc(CN3CCCCC3)nc3nc(-c4ncccc4C(F)(F)F)ccc23)cc1 [Compound 799, [2-Piperidin-1-ylmethyl-7-(3-trifluoromethyl-pyridin-2-yl)-[1,8]naphthyridin-4-yl]-(4-trifluoromethyl-phenyl)-amine] | < 1000 |
| FC(F)(F)c1ccc(Nc2cc(CN3CCSCC3)nc3nc(-c4ncccc4C(F)(F)F)ccc23)cc1 [Compound 802, [2-Thiomorpholin-4-ylmethyl-7-(3-trifluoromethyl-pyridin-2-yl)-[1,8]naphthyridin-4-yl]-(4-trifluoromethyl-phenyl)-amine] | < 1000 |
| CC1CCCCN1Cc1cc(Nc2ccc(C(F)(F)F)cc2)c2ccc(-c3ncccc3C(F)(F)F)nc2n1 (stereo not drawn) [Compound 810, [2-(2-Methyl-piperidin-1-ylmethyl)-7-(3-trifluoromethyl-pyridin-2-yl)-[1,8]naphthyridin-4-yl]-(4-trifluoromethyl-phenyl)-amine] | < 1000 |
| CCC1CCCCN1Cc1cc(Nc2ccc(C(F)(F)F)cc2)c2ccc(-c3ncccc3C(F)(F)F)nc2n1 (stereo not drawn) [Compound 812, [2-(2-Ethyl-piperidin-1-ylmethyl)-7-(3-trifluoromethyl-pyridin-2-yl)-[1,8]naphthyridin-4-yl]-(4-trifluoromethyl-phenyl)-amine] | < 1000 |
| CCN(Cc1cc(Nc2ccc(C(F)(F)F)cc2)c2ccc(-c3ncccc3C(F)(F)F)nc2n1)C1CCCCC1 [Compound 813, [2-[(Cyclohexyl-ethyl-amino)-methyl]-7-(3-trifluoromethyl-pyridin-2-yl)-[1,8]naphthyridin-4-yl]-(4-trifluoromethyl-phenyl)-amine] | < 1000 |
| CN1CCN(Cc2cc(Nc3ccc(C(F)(F)F)cc3)c3ccc(-c4ncccc4C(F)(F)F)nc3n2)CC1 [Compound 817, [2-(4-Methyl-piperazin-1-ylmethyl)-7-(3-trifluoromethyl-pyridin-2-yl)-[1,8]naphthyridin-4-yl]-(4-trifluoromethyl-phenyl)-amine] | < 1000 |

Second part, the compound after the results:

| Ki [nM] | Compound |
| --- | --- |
| < 1000 | CC(C)(C)c1ccc(Nc2nc(CN3CCC[C@H]3C(=O)O)nc3cc(-c4ncccc4C(F)(F)F)cnc23)cc1 [Compound 752, (S)-1-[4-(4-tert-Butyl-phenylamino)-7-(3-trifluoromethyl-pyridin-2-yl)-pyrido[3,2-d]pyrimidin-2-ylmethyl]-pyrrolidine-2-carboxylic acid] |
| < 1000 | CCCN(CCO)Cc1nc(Nc2ccc(C(C)(C)C)cc2)c2ccc(-c3ncccc3C(F)(F)F)cc2n1 [Compound 754, 2-{[4-(4-tert-Butyl-phenylamino)-7-(3-trifluoromethyl-pyridin-2-yl)-quinazolin-2-ylmethyl]-propyl-amino}-ethanol] |
| < 1000 | O=S1(=O)CCCCN1Cc1nc(Nc2ccc(C(F)(F)F)cc2)c2ccc(-c3ncccc3C(F)(F)F)cc2n1 [Compound 756, [2-(1,1-Dioxo-1λ^6-[1,2]thiazinan-2-ylmethyl)-7-(3-trifluoromethyl-pyridin-2-yl)-quinazolin-4-yl]-(4-trifluorornethyl-phenyl)-amine] |
| < 1000 | CC(C)CCNC(=O)c1nc(Nc2ccc(C(F)(F)F)cc2)c2ccc(-c3ncccc3C(F)(F)F)cc2n1 [Compound 761, 4-(4-Trifluoromethyl-phenylamino)-7-(3-trifluoromethyl-pyridin-2-yl)-quinazoline-2-carboxylic acid (3-methyl-butyl)-amide] |
| < 1000 | COCCNC(=O)c1nc(Nc2ccc(C(F)(F)F)cc2)c2ccc(-c3ncccc3C(F)(F)F)cc2n1 [Compound 762, 4-(4-Trifluoromethyl-phenylamino)-7-(3-trifluoromethyl-pyridin-2-yl)-quinazoline-2-carboxylic acid (2-methoxy-ethyl)-amide] |
| < 1000 | O=C(O)CNC(=O)c1nc(Nc2ccc(C(F)(F)F)cc2)c2ccc(-c3ncccc3C(F)(F)F)nc2n1 [Compound 764, {[4-(4-Trifluoromethyl-phenylamino)-7-(3-trifluoromethyl-pyridrn-2-yl)-pyrido[2,3-d]pyrimidine-2-carbonyl]-amino}-acetic acid] |
| < 1000 | O=C(O)CCCNC(=O)c1nc(Nc2ccc(C(F)(F)F)cc2)c2ccc(-c3ncccc3C(F)(F)F)nc2n1 [Compound 766, 4-{[4-(4-Trifluoromethyl-phenylamino)-7-(3-trifluoromethyl-pyridin-2-yl)-pyrido[2,3-d]pyrimidine-2-carbonyl]-amino}-butyric acid] |
| < 1000 | CC(C)c1ccc(Nc2nc(C3CCN(C)CC3)nc3nc(-c4ncccc4Cl)ccc23)cc1 [Compound 770, [7-(3-Chloro-pyridin-2-yl)-2-(1-methyl-piperidin-4-yl)-pyrido[2,3-d]pyrimidin-4-yl]-(4-isopropyl-phenyl)-amine] |
| < 1000 | FC(F)(F)c1ccc(Nc2cc(CN3CCOCC3)nc3nc(-c4ncccc4C(F)(F)F)ccc23)cc1 [Compound 800] |
| < 1000 | FC(F)(F)c1ccc(Nc2cc(CN3CC=CCC3)nc3nc(-c4ncccc4C(F)(F)F)ccc23)cc1 [Compound 816, [2-(3,6-Dihydro-2H-pyridin-1-ylmethyl)-7-(3-trifluoromethyl-pyridin-2-yl)-[1,8]naphthyridin-4-yl]-(4-trifluoromethyl-phenyl)-amine] |
